These results are taken from patent publication US20030194409A1, “Conjugate heat shock protein-binding peptides” (priority 2002, published 2003).

Read-outs that look alike come from different tables or passages of the source.

In test [1] the target is T1, gp96 in the presence of herbimycin A (Mus musculus, UniProt P08113).
T1 construct: The mouse cDNA encoding mature gp96 (i.e., wherein the endoplasmic reticulum signal peptide has been removed) was incorporated into the pET 11 a expression vector; made in house; host or cells: Escherichia coli BL21 (pET11gp96)
The test is described as follows: Affinity panning of phage display heptapeptide library on gp96 in the presence of herbimycin A. In kind it is binding. The following applies: for % actual (amino acid frequency in sequenced gp96-binding phage-expressed heptapeptides): TWEEN 20. As to the method:
Preparation of a gp96 expression vector. The mouse cDNA encoding mature gp96 (i.e., wherein the endoplasmic reticulum signal peptide has been removed) was incorporated into the pET 11 a expression vector (Novagen) as follows. Gp96 cDNA insert was prepared by polymerase chain reaction (PCR) of a pRc/CMV clone containing the cDNA using the following oligonucleotide primers: […]
Expression of gp96. pET11gp96 was transformed into BL21 Escherichia coli cells, and plated on LB plates containing ampicillin (50 μg/ml). One of the resulting colonies was used to inoculate a 20 ml overnight culture of 2×TY medium containing ampicillin (150 μg/ml). The following day, the resulting culture was spun down and the harvested bacteria were resuspended in 1 ml of fresh medium. Two one liter cultures were then each inoculated with 0.5 ml of the harvested cells and allowed to grow at 37° C. until the optical density, measured at 600 nm, was 0.5. Then, IPTG was added to a concentration of 1 mM and the cells were cultured for another 3 hours before being harvested by centrifugation. The resulting cell pellet was resuspended in 20 ml of 50 mM HEPES pH 7.5, 50 mM KCl, 5 mM MgAcetate, 20% sucrose and 1 mM PMSF. Cell extracts were prepared by pressure shearing in a French Press. The lysates were then spun at 100,000×g for 1.5 hours and the supernatant, which constituted crude gp96 extract, was collected.
Purification of gp96. The following steps were all performed at 4° C. A 12.5 cm×3.2 cm column of DE52 resin (Whatman) was equilibrated in a solution of 50 mM MOPS pH 7.4, 10 mM NaCl, 5 mM MgAcetate (hereafter, “Buffer A”). The crude gp96 extract was diluted 2-fold and immediately loaded onto the column at a flow rate of 2 ml/min. Elution from the column was achieved using a gradient of a solution of 50 mM MOPS pH 7.4, 1M NaCl, 5 mM MgAcetate (hereafter, “Buffer B”) from 0% to 100% Buffer B over 1000 ml. The elution profile was examined by subjecting fractions collected from the column to SDS-PAGE analysis. Fractions containing gp96 were pooled and diluted 2-fold with cold water, and were immediately run onto the next column (see below).
A 10 cm×1 cm column of hydroxyapatite (BioRad) was washed with 100 ml 0.5 M K2HPO4, 50 mM KCl pH 7.4 and then equilibrated with 10 mM K2HPO4, 50 mM KCl pH 7.4. The pooled diluted fractions from the DE52 column were loaded onto this column at a flow rate of 1 ml/min. The gp96 protein was eluted in a gradient of 10-500 mM K2HPO4 over 800 ml. Fractions containing gp96 were pooled and loaded onto the phenylsepharose column described below.
A 9 cm×3 cm column of phenylsepharose (Pharmacia) was equilibrated with 500 mM NaCl, 50 mM MOPS pH 7.4. The pooled fractions containing gp96 from the hydroxyapatite were loaded onto this column at 1 ml/min and the gp96 was eluted in a gradient of 500-0 mM NaCl over 800 ml. The gp96 containing fractions collected from the column were identified by SDS-PAGE, pooled, and concentrated.
The gp96 was then loaded onto a Hi Load 26/60 Superdex-200 column (Pharmacia) equilibrated with 100 mM NaCl, 5 mM MgAcetate, 50 mM MOPS pH 7.5, 3 ml fractions were collected, and the fractions containing the most pure gp96 (as identified by SDS PAGE using a 12 percent reducing gel) and pooled. To the pooled fractions, glycerol was added to 10% (v/v), and then the fractions were concentrated to 21 mg/ml on a Centricon-50 concentrator (Amicon), frozen using liquid nitrogen, and stored at −80° C.
Affinity panning. The Ph.D. Phage Display Library Kit (New England BioLabs, Beverly, Mass.), was used for affinity panning. For each panning experiment, a well of a 96-well polystyrene microtiter plate (each well having a 6 mm diameter) was filled with 150 μl of a solution of 200 μg/ml of gp96 in 0.1 M NaHCO3 pH 8.3. If herbimycin A was to be included in the experiment, 1 μl of 10 mg/ml herbimycin A (GIBCO) in DMSO was added to each well, corresponding to a 50-fold molar excess relative to gp96. […]

Test [2] has as its target T1, gp96 in the presence of herbimycin A. The following applies: expected frequency for comparison with % actual, cited from earlier work.
[3] abbreviates: Table XII, gp96 and herbimycin A, binding buffer without calcium: 20 mM HEPES pH 7.5, 100 mM KCl, 1 mM DTT, 1 mM MgAcetate, 42 phage-expressed peptides sequenced.
[4] abbreviates: Table XIV, gp96 in the presence of herbimycin A, binding buffer with ATP: 20 mM HEPES pH 7.5, 100 mM KCl, 1 mM CaCl2, 1 mM MgAcetate, 1 mM ATP.
Setting [5] is: Table XVI, binding buffer with AMP-PNP instead of ATP: 20 mM HEPES pH 7.5, 100 mM KCl, 1 mM CaCl2, 1 mM MgAcetate, 1 mM AMP-PNP.

T1 sequence (P08113 22-802): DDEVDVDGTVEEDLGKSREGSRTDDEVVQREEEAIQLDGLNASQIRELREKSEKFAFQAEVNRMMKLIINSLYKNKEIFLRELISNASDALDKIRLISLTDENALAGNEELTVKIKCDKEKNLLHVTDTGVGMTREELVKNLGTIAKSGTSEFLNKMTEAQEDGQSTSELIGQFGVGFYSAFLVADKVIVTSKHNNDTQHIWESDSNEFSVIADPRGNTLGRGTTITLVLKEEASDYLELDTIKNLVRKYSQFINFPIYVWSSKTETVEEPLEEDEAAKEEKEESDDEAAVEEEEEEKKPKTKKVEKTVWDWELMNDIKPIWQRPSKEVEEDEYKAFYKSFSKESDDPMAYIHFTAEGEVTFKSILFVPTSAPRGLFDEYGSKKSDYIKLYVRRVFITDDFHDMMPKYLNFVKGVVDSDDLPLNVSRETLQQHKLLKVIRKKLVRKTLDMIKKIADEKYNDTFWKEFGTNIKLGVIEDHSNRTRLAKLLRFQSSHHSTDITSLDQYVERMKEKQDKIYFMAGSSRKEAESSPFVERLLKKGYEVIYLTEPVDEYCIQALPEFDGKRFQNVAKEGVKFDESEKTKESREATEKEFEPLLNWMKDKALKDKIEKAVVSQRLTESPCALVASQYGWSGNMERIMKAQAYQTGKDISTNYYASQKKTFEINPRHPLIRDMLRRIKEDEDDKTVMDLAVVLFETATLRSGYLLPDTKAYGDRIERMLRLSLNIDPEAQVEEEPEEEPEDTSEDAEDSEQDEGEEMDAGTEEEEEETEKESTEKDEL

In the case of `C[C@H](N)C(=O)O` [Ala], the “% actual (amino acid frequency in sequenced gp96-binding phage-expressed heptapeptides)” value (“% actual” below) in test [1] (setting [3]) is on record as 10.2%; in test [1] (setting [4]), 3.57%; in test [1] (setting [5]), 8.5%. Further, the “% expected (amino acid frequency)” value in test [2] (Table XII), in test [2] (Table XIV) and in test [2] (Table XVI) was 7.2% in each case.
In the case of `N=C(N)NCCC[C@H](N)C(=O)O` [Arg], the “% actual” value in test [1] (setting [3]) stood at 2.72%; in test [1] (setting [4]), 5.35%; in test [1] (setting [5]), 5.7%. The “% expected (amino acid frequency)” value in test [2] (Table XII), in test [2] (Table XIV) and in test [2] (Table XVI) was 3.9% each time.
On to `NC(=O)C[C@H](N)C(=O)O` [Asn], for which the “% actual” value worked out at 3.06% in test [1] (setting [3]), 5.3% in test [1] (setting [4]) and 5.7% in test [1] (setting [5]). For the same compound, the “% expected (amino acid frequency)” value in test [2] (Table XII), in test [2] (Table XIV) and in test [2] (Table XVI) was 4.1% each time.
Regarding `N[C@@H](CC(=O)O)C(=O)O` [Asp], the “% actual” value in test [1] (setting [3]) amounted to 2.04%; in test [1] (setting [4]), 0%; in test [1] (setting [5]) it was 1.4%. Moreover, the “% expected (amino acid frequency)” value in test [2] (Table XII), in test [2] (Table XIV) and in test [2] (Table XVI) was 2.1% throughout.
As for `N[C@@H](CS)C(=O)O` [Cys], the “% actual” value in test [1] (setting [3]), in test [1] (setting [4]) and in test [1] (setting [5]) was 0% in each case. For the same compound, the “% expected (amino acid frequency)” value in test [2] (Table XII), in test [2] (Table XIV) and in test [2] (Table XVI) was 0.8% each time.
For `NC(=O)CC[C@H](N)C(=O)O` [Gln], the “% actual” value in test [1] (setting [3]) came to 2.0%; in test [1] (setting [4]), 1.78%; in test [1] (setting [5]), 5.7%. For the same compound, the “% expected (amino acid frequency)” value in test [2] (Table XII), in test [2] (Table XIV) and in test [2] (Table XVI) was 6.4% each time.
For `N[C@@H](CCC(=O)O)C(=O)O` [Glu], the “% actual” value was determined as 2.0% in test [1] (setting [3]), 0% in test [1] (setting [4]) and 0% in test [1] (setting [5]). In addition, the “% expected (amino acid frequency)” value in test [2] (Table XII), in test [2] (Table XIV) and in test [2] (Table XVI) was 1.2% each time.
With `NCC(=O)O` [Gly], the “% actual” value in test [1] (setting [3]) was determined as 3.74%; in test [1] (setting [4]), 1.78%; in test [1] (setting [5]) it was 1.4%. Also, the “% expected (amino acid frequency)” value in test [2] (Table XII), in test [2] (Table XIV) and in test [2] (Table XVI) was 3.7% each time.
On to `N[C@@H](Cc1c[nH]cn1)C(=O)O` [His], for which the “% actual” value in test [1] (setting [3]) came out at 5.44%; in test [1] (setting [4]), 10.7%; in test [1] (setting [5]), 12.8%. In addition, the “% expected (amino acid frequency)” value in test [2] (Table XII), in test [2] (Table XIV) and in test [2] (Table XVI) was 4.3% each time.
With `CC(C)C[C@H](N)C(=O)O` [Leu], the entries for the “% actual” value in test [1] (setting [3]), in test [1] (setting [4]) and in test [1] (setting [5]) were 12.92%, 10.7% and 5.7%, respectively. Further, the “% expected (amino acid frequency)” value in test [2] (Table XII), in test [2] (Table XIV) and in test [2] (Table XVI) was 11.8% in each case.
With `NCCCC[C@H](N)C(=O)O` [Lys], the figures for the “% actual” value in test [1] (setting [3]), in test [1] (setting [4]) and in test [1] (setting [5]) were 3.74%, 0% and 2.85%, respectively. In addition, the “% expected (amino acid frequency)” value in test [2] (Table XII), in test [2] (Table XIV) and in test [2] (Table XVI) was 1.7% each time.
With `CSCC[C@H](N)C(=O)O` [Met], the results for the “% actual” value in test [1] (setting [3]), in test [1] (setting [4]) and in test [1] (setting [5]) were 2.0%, 0% and 2.85%, respectively. In addition, the “% expected (amino acid frequency)” value in test [2] (Table XII), in test [2] (Table XIV) and in test [2] (Table XVI) was 3.3% each time.
On to `N[C@@H](Cc1ccccc1)C(=O)O` [Phe], for which the “% actual” value in test [1] (setting [3]) is 2.38%; in test [1] (setting [4]), 0%; in test [1] (setting [5]), 2.85%. Also, the “% expected (amino acid frequency)” value in test [2] (Table XII), in test [2] (Table XIV) and in test [2] (Table XVI) was 2.9% in each case.
Turning to `O=C(O)[C@@H]1CCCN1` [Pro], the “% actual” value in test [1] (setting [3]) stood at 10.88%; in test [1] (setting [4]), 14.2%; in test [1] (setting [5]), 12.8%. The “% expected (amino acid frequency)” value in test [2] (Table XII), in test [2] (Table XIV) and in test [2] (Table XVI) was 12% each time.
For “Phe-His-Trp-Trp-Trp (FHWWW; printed: Phe-His-Trp-Trp-Trp)”, in test [1] (20 mM HEPES pH 7.5, 100 mM KCl, 25 mM CaCl2, 5 mM MgAcetate, TWEEN-20, herbimycin A present), the “binding of phage-expressed peptides to gp96” value is recorded as “appeared to be favored”.
